The source of these data is US20070225356A1, “Preventive and/or Therapeutic Agent for Chronic Sinusitis” (Kyowa Hakko Kogo Co., Ltd, priority 2004, published 2007).

Test [1] concerns patient diagnosed as chronic sinusitis. Put plainly: Test Example 1: effect of olopatadine hydrochloride on chronic sinusitis, one patient, CT and subjective symptoms. The class given is in vivo, human. Conditions: for improvement of symptoms (polyp, headache, right nasal obstruction, purulent nasal discharge, closure of right olfactory cleft): administration of Klaricid and Neuzym for 2 months or more, same patient, before olopatadine hydrochloride. As for the experimental part: A patient diagnosed as chronic sinusitis was orally daily administered with olopatadine hydrochloride (Allelock™ 5 mg tablet; Kyowa Hakko Kogyo Co., Ltd.) alone in a dose of one tablet two times (after breakfast and before bedtime) a day (10 mg/day) everyday. Before the administration of olopatadine hydrochloride and 2 months after the administration, computed tomography (CT) was performed to observe changes in symptoms. […] In administration of Klaricid™ (general name: clarithromycin) and Neuzym™ (general name: lysozyme chloride) for 2 months or more, improvement of these symptoms were not observed.

Test [2] has the same test system. Put plainly: Test Example 3: effect 2 on chronic sinusitis, one patient, 21-day schedule, plain radiography. It counts as in vivo, human. As for the experimental part: A patient diagnosed as chronic sinusitis was administered with olopatadine hydrochloride (Allelock™ 5 mg tablet; Kyowa Hakko Kogyo Co., Ltd.) according to the prescription schedule below (21 days in total). 1. First 7 Days (Co-Administration) Three medicines were dosed together according to the following prescription. Also, frequently used SG granules were also prescribed. Olopatadine hydrochloride 5 mg tablet: oral dose of one tablet two times a day for 7 days (10 mg/day) Gatiflo™ (general name: gatifloxacin) 200 mg tablet: oral dose of one tablet two times a day for 4 days (400 mg/day) Mucodyne™ (general name: carbocysteine) 500 mg tablet: oral dose of one tablet three times a day for 7 days (1500 mg/day) 2. Next 14 Days (Single Administration of Olopatadine Hydrochloride) Furthermore, olopatadine hydrochloride was given according to the following prescription: Olopatadine hydrochloride 5 mg tablet: oral dose of one tablet two times a day for 14 days (10 mg/day) Plain radiography was conducted before the administration of the above medicines and 21 days after the administration to observe changes in the symptoms.

Test [3] concerns patient with chronic sinusitis complicated with allergic rhinitis. In words: Test Example 5: transitions of symptoms, CT and plain radiography, one patient. It counts as in vivo, human. Set-up: key to Color of inferior turbinate mucosa (objective symptom grade): +++: (Pale); ++: (Red); +: (Light red); −: (Normal); key to Postnasal drip (subjective symptom grade): +++: Always; ++: Frequently; +: Sometimes; −: No. The protocol:
A patient with chronic sinusitis complicated with allergic rhinitis was orally administered with olopatadine hydrochloride (Allelock™ 5 mg tablet; Kyowa Hakko Kogyo Co., Ltd.) alone in a dose of one tablet two times a day for 2 months (10 mg/day). The patient had developed serious sneezing, nasal obstruction, and postnasal drip about 5 and half years ago. The patient discontinued treatment when the subjective symptoms were relieved by intermittent medication. However, improvements in the symptoms were not observed before the start of treatment by administration of the above olopatadine hydrochloride. In addition, in a nasal discharge eosinophil test (an intermediate state between clusters of eosinophils and observable weak dispersion of eosinophils in nasal discharge) and a scratch test (house dust, candida, cedar, and orchard grass), the patient was positive before the start of administration, and the chronic sinusitis of the patient was recognized to be complicated with allergic rhinitis. […] The degree of each symptom was decided on the basis of Tables 3 and 4 in reference to “Nasal Allergy Diagnosis Guideline for 2002 (Revised Fourth Edition)”. In addition, computed tomography (CT) was conducted before the administration of olopatadine hydrochloride and 1 month after and 2 months after the administration, and plain radiography (Waters method) was conducted before the administration of olopatadine hydrochloride and 2 months after the administration to observe changes in the symptoms.

For test [4], the system named is patients with chronic sinusitis complicated with perennial allergic rhinitis. In words: Test Example 2: degree of improvement in symptoms, 24 patients, eighth week. It counts as in vivo, human. Conditions: oral 10 mg/day, other medicines may be combined. The protocol:
Patients (24 patients, average age 33.8 years old, duration 61.5±59.7 days) with chronic sinusitis complicated with perennial allergic rhinitis were orally administered with olopatadine hydrochloride (Allelock™ 5 mg tablet; Kyowa Hakko Kogyo Co., Ltd.) in a dose of one tablet two times-(after breakfast and before bedtime) a day (10 mg/day) everyday. In this case, Mucodyne™ (general name: carbocysteine), Dasen™ (general name: serrapeptase), Polaramine™ (general name: d-chlorpheniramine maleate), Klaricid™ (general name: clarithromycin) or the like may be combined. The combined use with such a medicine was filled in a survey sheet. Such a medicine had been given for treatment before this test. At the eighth week of the administration, degrees of improvement in 1) sneezing, 2) nasal drip, 3) nasal obstruction, 4) interference with daily life, 5) mucosal swelling, 6) headache and head heaviness, and 7) postnasal drip were examined for each patient. The degree of each symptom determined with reference according to “Nasal Allergy Diagnosis Guideline for 2002 (Revised Fourth Edition)”, and the degree of improvement in each symptom was evaluated for each patient having a corresponding symptom before the administration on the basis of the four stages, i.e., disappearance, significant improvement, improvement, and no change. In the case of more than improvement (disappearance, significant improvement, or improvement), the rate of improvement was evaluated as “effective” and calculated as a rate (%) of an effective number of patients relative to the number of patients (number of cases) having a corresponding symptom before administration.

The subject of test [5] is patient diagnosed as chronic sinusitis. In words: Test Example 4: effect 3 on chronic sinusitis, one patient, 35-day schedule, plain radiography. It counts as in vivo, human. As for the experimental part: A patient diagnosed as chronic sinusitis was administered with olopatadine hydrochloride (Allelock™ 5 mg tablet; Kyowa Hakko Kogyo Co., Ltd.) according to the prescription schedule below (35 days in total). 1. First 7 Days (Co-Administration) Three medicines were dosed together according to the following prescription. Olopatadine hydrochloride 5 mg tablet: oral dose of one tablet two times a day for 7 days (10 mg/day) Gatiflo™ (general name: gatifloxacin) 200 mg tablet: oral dose of one tablet two times a day for 4 days (400 mg/day) Mucodyne™ (general name: carbocysteine) 500 mg tablet: oral dose of one tablet three times a day for 7 days (1500 mg/day) 2. Next 14 Days (Co-Administration) Two medicines were further dosed together according to the following prescription. Olopatadine hydrochloride 5 mg tablet: oral dose of one tablet two times a day for 14 days (10 mg/day) Mucodyne™ 500 mg table: oral dose of one tablet three times a day for 14 days (1500 mg/day) 3. Next 14 Days (Single Administration) Furthermore, olopatadine hydrochloride was given according to the following prescription: Olopatadine hydrochloride 5 mg table: oral dose of one tablet two times a day for 14 days (10 mg/day) Plain radiography was conducted before the administration of the above medicines and 35 days after the administration to observe changes in the symptoms.

For another test, the system named is allergic rhinitis. Conditions: Phase III test; cited from earlier work.
In test [6] the test system is experimental allergic rhinitis model. Conditions: guinea pigs; cited from earlier work.
The mark [7] stands for this setting: oral 10 mg/day alone for 2 months, one patient.
Setting [8] is: first 7 days, co-administration with Gatiflo (gatifloxacin) and Mucodyne (carbocysteine), oral 10 mg/day.
[9] abbreviates: next 14 days, single administration, oral 10 mg/day.
Where [10] appears, read: Two weeks after administration, oral 10 mg/day alone, before administration ++.
[11] abbreviates: single administration for 2 months, oral 10 mg/day.
The mark [12] stands for this setting: next 14 days, co-administration with Mucodyne (carbocysteine), oral 10 mg/day.

Counter-ions that a name gives are not always drawn.

`CC[C@H]1OC(=O)[C@H](C)[C@@H](O[C@H]2C[C@@](C)(OC)[C@@H](O)[C@H](C)O2)[C@H](C)[C@@H](O[C@@H]2O[C@H](C)C[C@H](N(C)C)[C@H]2O)[C@](C)(OC)C[C@@H](C)C(=O)[C@H](C)[C@@H](O)[C@]1(C)O` [Klaricid, clarithromycin]: in test [1], the “improvement of symptoms (polyp, headache, right nasal obstruction, purulent nasal discharge, closure of right olfactory cleft)” value is on record as “not observed”.
For the compound `CN(C)CC/C=C1/c2ccccc2COc2ccc(CC(=O)O)cc21` [olopatadine hydrochloride], in test [1] (setting [7]), the “polyp and soft-tissue density mass which filled the right nasal cavity (CT image)” value is on record as “substantially disappeared”; the “soft-tissue density area which filled the right ethmoidal, right sphenoidal and right frontal sinus (CT image)” value is reported as “substantially disappeared”; the “subjective symptoms such as nasal drip and headache” value is on record as “disappeared”; the “swelling of the inside wall toward the nasal cavity side, closure of the right olfactory cleft due to mucosal thickening (CT image)” value is on record as “relieved”. In test [2] (after a total of 21 days (7 days co-administration, 14 days single)), the “shadows in the plain radiograph indicating sinusitis inflammation in the ethmoidal sinus and right and left maxillary sinuses” value was “completely disappeared”. Besides, in test [2] (setting [8]), the “cheek pains (facial pain) and headache” value is reported as “disappeared”; the “nasal symptoms such as purulent nasal discharge and nasal obstruction” value is listed as “improved”. In test [2] (setting [9]), the “nasal mucosal swelling and the like” value is reported as “unobserved”; the “nasal symptoms such as purulent nasal discharge and nasal obstruction” value is “disappeared”. Also, the “Color of inferior turbinate mucosa (objective symptom grade)” value in test [3] (One month after administration, oral 10 mg/day alone, before administration ++) is recorded as “−”. In addition, in test [3] (setting [10]), the “Color of inferior turbinate mucosa (objective symptom grade)” value is “−” and the “Postnasal drip (subjective symptom grade)” value is “+”. Besides, the “mucosal swelling in the ethmoidal sinus and the maxillary sinus (CT image)” value in test [3] (single administration for 1 month, oral 10 mg/day) was “significantly relieved”. In test [3] (setting [11]), the “mucosal swelling in the ethmoidal sinus and the maxillary sinus (CT image)” value is “substantially disappeared”; the “shadows observed in the maxillary sinus indicating inflammation of chronic sinusitis (plain radiograph)” value is on record as “disappeared”. Besides, in test [4] (3 cases), the “Postnasal drip: Rate of improvement” value came out at 100%, the “Postnasal drip: patients with Disappearance” value is listed as 3, the “Postnasal drip: patients with Improvement” value was 0 and the “Postnasal drip: patients with No change” value came to 0. Further, the “Postnasal drip: patients with Significant improvement” value in test [4] (3 cases) came to 0. Further, in test [4] (5 cases), the “Headache, head heaviness: Rate of improvement” value was determined as 100%; the “Headache, head heaviness: patients with Disappearance” value turned out to be 5; the “Headache, head heaviness: patients with Improvement” value came out at 0; the “Headache, head heaviness: patients with No change” value was determined as 0. Further, the “Headache, head heaviness: patients with Significant improvement” value in test [4] (5 cases) turned out to be 0. Further, in test [4] (12 cases), the “Sneezing: Rate of improvement” value was found to be 91.7%, the “Sneezing: patients with Disappearance” value is 8, the “Sneezing: patients with Improvement” value amounted to 3 and the “Sneezing: patients with No change” value was 1. Besides, the “Sneezing: patients with Significant improvement” value in test [4] (12 cases) is recorded as 0. Also, in test [4] (15 cases), the “Nasal drip: Rate of improvement” value is 73.3%, the “Nasal drip: patients with Disappearance” value came out at 4, the “Nasal drip: patients with Improvement” value was 5 and the “Nasal drip: patients with No change” value was found to be 4. For the same compound, in test [4] (15 cases), the “Nasal drip: patients with Significant improvement” value is listed as 2. Besides, in test [4] (16 cases), the “Interference with daily life: Rate of improvement” value was 87.5%, the “Interference with daily life: patients with Disappearance” value came out at 3, the “Interference with daily life: patients with Improvement” value is on record as 8 and the “Interference with daily life: patients with No change” value worked out at 2. For the same compound, in test [4] (16 cases), the “Interference with daily life: patients with Significant improvement” value is 3, the “Mucosal Swelling: Rate of improvement” value was found to be 87.5%, the “Mucosal Swelling: patients with Disappearance” value came to 0 and the “Mucosal Swelling: patients with Improvement” value is 13. Also, in test [4] (16 cases), the “Mucosal Swelling: patients with No change” value turned out to be 2, the “Mucosal Swelling: patients with Significant improvement” value stood at 1, the “Nasal obstruction: Rate of improvement” value turned out to be 87.5% and the “Nasal obstruction: patients with Disappearance” value was found to be 4. In addition, in test [4] (16 cases), the “Nasal obstruction: patients with Improvement” value worked out at 7, the “Nasal obstruction: patients with No change” value worked out at 2 and the “Nasal obstruction: patients with Significant improvement” value worked out at 3. In test [5] (after a total of 35 days), the “shadows in the plain radiograph indicating sinusitis inflammation in the ethmoidal sinus and right and left maxillary sinuses” value was “completely disappeared”. In addition, in test [5] (setting [8]), the “left cheek pain (facial pain) and malaise” value is reported as “disappeared”; the postnasal drip entry was “not improved”; the purulent nasal discharge result is “decreased and substantially disappeared”. Also, the all subjective symptoms result in test [5] (last 14 days, single administration, oral 10 mg/day) is listed as “disappeared”. Further, in test [5] (setting [12]), the “nasal mucosal swelling and the like” value is reported as “disappeared”; the “nasal symptoms such as purulent nasal discharge and postnasal drip” value was “disappeared”.
As to lysozyme chloride [Neuzym], the “improvement of symptoms (polyp, headache, right nasal obstruction, purulent nasal discharge, closure of right olfactory cleft)” value in test [1] is recorded as “not observed”.
With `CN(C)CC/C=C1/c2ccccc2COc2ccc(CC(=O)O)cc21` [compound 1, (Z)-11-(3-dimethylaminopropylidene)-6,11-dihydrodibenzo[b,e]oxepine-2-acetic acid], the “nasal congestion of allergic rhinitis” value with allergic rhinitis is recorded as “highly improve”. The nasal congestion reaction entry in test [6] is given as “inhibitory action”.
